# Results: EP0498222A1, “Novel peptides” (SUMITOMO CHEMICAL COMPANY LIMITED, priority 1991, dated 1992)
# Positions of bridges follow the written chain, without caps; N, C: chain ends. Residues, ends and D or L forms follow the SMILES beside them.
# What was measured:
# [1] = system: last instar larvae of Pseudaletia separata; assay: Effect on growth (body weight) of last instar larvae after injection; assay type: in vivo; conditions: 7 picomoles injected on day 0, day 1 and day 2 of last instar; weight checked until day 3; control about 2.5 times day 0 weight on day 3
# Protocol: To examine the effect of peptide I-a on the growth of last instar larvae of Pseudaletia separata, last instar larvae of P. separata were injected with 7 picomoles of peptide I-a for consecutive three days (day 0, day 1 and day 2). They were reared on an artificial diet and the weight of each larva was checked until day 3. […] The open circles ( ⃝) indicate the body weights of the last instar larvae injected with 7 picomoles of peptide I-a on day 0, day 1 and day 2 while the closed circles (●) indicate the body weights of last instar larvae injected with Ringer's solution on day 0, day 1 and day 2.
# [2] = system: unparasitized last instar larvae of Pseudaletia separata; assay: Insect development controlling activity (growth stage checked at 24-hour intervals); assay type: in vivo; conditions: 7 picomoles injected on day 1 and day 2; control Ringer's solution
# Protocol: The purified peptide I-a was dissolved with Ringer's solution and injected, at a dose of 7 picomoles, into unparasitized last instar larvae of Pseudaletia separata on day 1 and day 2. Then the growth stage (larva, prepupa, pupa, or dead) of each larva was checked at 24-hour intervals and the number of individuals in each stage was recorded. Control larvae were injected with Ringer's solution alone.
# [3] = system: JH esterase; assay: JH esterase activity assay of hemolymph from injected larvae, (10-3H)JH I as substrate; assay type: in vivo, Pseudaletia separata; conditions: predetermined doses injected on day 1 and day 2; hemolymph collected on day 3
# Protocol: The purified peptide I-a was diluted with Ringer's solution and injected, at a predetermined dose, into unparasitized last instar larvae of Pseudaletia separata on day 1 and day 2. The larvae were further reared on an artificial diet. On day 3, hemolymph was prepared from the larvae and centrifuged (500 x g, 4°C, 5 minutes). The supernatant thus collected was subjected to JH esterase activity assay. (10-³H)JH I was used as the substrate for activity assay and the JH-metabolizing activity was estimated based on the proportion of JH acid to the total product formed under the action of JH esterase.
compound,measurement,setting,value
CSCC[C@@H]1NC(=O)[C@H](Cc2ccc(O)cc2)NC(=O)CNC(=O)[C@H](C)NC(=O)[C@H](C(C)C)NC(=O)[C@@H](NC(=O)CNC(=O)CNC(=O)[C@H](CO)NC(=O)[C@H](Cc2ccccc2)NC(=O)[C@H](CC(N)=O)NC(=O)[C@@H](N)CCC(=O)O)CSSC[C@@H](C(=O)N[C@@H](CCCCN)C(=O)N2CCC[C@H]2C(=O)N[C@H](C(=O)N[C@@H](Cc2ccccc2)C(=O)N[C@@H](Cc2ccc(O)cc2)C(=O)N[C@@H](CCC(N)=O)C(N)=O)[C@@H](C)O)NC(=O)[C@H](CCCNC(=N)N)NC(=O)CNC(=O)[C@H](CC(=O)O)NC(=O)[C@@H]2CCCN2C(=O)[C@H]([C@@H](C)O)NC(=O)[C@H](CCCNC(=N)N)NC1=O [peptide I-a] (H-ENFSGGCVAGYMRTPDGRCKPTFYQ-NH2; disulfide 7-19),body weight change,[1],only slight increases in body weight
same,prepupal stage came later than in control larvae,[2],2 days
same,pupation later than in control larvae,[2],more than 2 days
same,JH esterase activity,[3],repressed the JH esterase activity in a dose dependent manner
